target: T1, Apelin receptor (Homo sapiens, UniProt P35414); test: apelin receptor activators, concentration-response – cell-based, luminescence, uHTS hits, dose response (AID 488748); conditions: not given
T1 sequence (P35414 whole entry): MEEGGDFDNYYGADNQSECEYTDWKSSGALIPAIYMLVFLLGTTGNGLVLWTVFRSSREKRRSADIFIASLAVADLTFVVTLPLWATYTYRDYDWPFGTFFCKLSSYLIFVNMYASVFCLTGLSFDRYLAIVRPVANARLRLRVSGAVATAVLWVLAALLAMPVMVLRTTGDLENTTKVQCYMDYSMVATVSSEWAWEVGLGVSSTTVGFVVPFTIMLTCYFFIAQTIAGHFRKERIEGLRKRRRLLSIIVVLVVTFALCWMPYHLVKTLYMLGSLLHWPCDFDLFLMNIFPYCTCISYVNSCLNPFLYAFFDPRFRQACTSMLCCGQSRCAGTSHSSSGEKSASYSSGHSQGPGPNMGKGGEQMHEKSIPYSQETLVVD

SMILES	EC50 [µM]
Cc1ccc(S(=O)(=O)Nc2nc(-c3ccccc3)cs2)cc1	> 100
Cc1cc(C)c2nc(NNC(=O)c3ccc(S(=O)(=O)N4CCc5ccccc5C4)cc3)sc2c1	> 100
Cc1ccc2nc(C(C#N)=Cc3ccc([N+](=O)[O-])o3)[nH]c2c1	> 100
CCC(c1nnnn1CCOC)N(Cc1ccc(C)cc1)Cc1cc2cc(OC)ccc2[nH]c1=O (configuration not stated)	> 100
CCC(C)NC(=O)CSC1=Nc2ccccc2C2=NC(CC(=O)NCc3ccc(F)cc3)C(=O)N12 (configuration not stated)	> 100
COc1ccccc1-n1c(SC)nc(O)cc1=O	58.4
CCCCCCC1=Cc2c/c(=C3/NN=C(c4cc(OC)c(OC)c(OC)c4)O3)c(=O)oc2=CC1=O	> 100
COc1cc2c(cc1NC(=O)c1cc(-c3ccncc3)nc3ccc(C)cc13)oc1ccccc12	> 100
Cc1cc(C)c2sc(NNC(=O)c3ccc(S(=O)(=O)N4CCc5ccccc5C4)cc3)nc2c1	> 100
COC/C=C/C1=CC2=CC(=O)C(C)(OC(=O)c3cnc4ccccc4n3)C(=O)C2=CN1c1ccccc1 (configuration not stated)	> 100
Clc1cccc(CN2CCc3c([nH]c4ccccc34)C2)c1	> 100
COc1ccc(CN=Nc2cc(C)nc3ccc(OC)cc23)c(OC)c1	> 100
CCOc1cc2[nH]c(=S)n(CCCC(=O)NCc3ccccn3)c(=O)c2cc1OCC	> 100
CCN(CC)CCNC(=O)c1ccc(NC(=O)c2cc(-c3ccco3)nc3ccccc23)cc1	> 100
CC1CCCCN1S(=O)(=O)c1ccc(C(=O)N(CCCN(C)C)c2nc3ccc(Br)cc3s2)cc1 (configuration not stated)	> 100
CCOc1ccc2nc(N(CCCN(C)C)C(=O)c3ccc(S(=O)(=O)N4CCc5ccccc5C4)cc3)sc2c1	> 100
COc1cccc2sc3cc(NCC[C@@H]4CCCN4C)ccc3c(=O)c12	> 100
C=CCSc1nc(O)c(CC)c(=O)n1C(C)CC (configuration not stated) [1-butan-2-yl-5-ethyl-6-oxidanyl-2-prop-2-enylsulfanyl-pyrimidin-4-one]	78.9
CCCSc1nc(O)c(CC)c(=O)n1C(C)CC (configuration not stated) [1-butan-2-yl-5-ethyl-6-oxidanyl-2-propylsulfanyl-pyrimidin-4-one]	56.9
CCC(C)NC(=O)CSC1=Nc2ccccc2C2=NC(CC(=O)NCc3ccccc3)C(=O)N12 (configuration not stated) [2-[5-[2-(butan-2-ylamino)-2-oxidanylidene-ethyl]sulfanyl-3-oxidanylidene-2H-imidazo[1,2-c]quinazolin-2-yl]-N-(phenylmethyl)ethanamide]	> 100
Clc1ccccc1CSc1nnc(-c2ccncc2)o1 [2-{[(2-chlorophenyl)methyl]sulfanyl}-5-(pyridin-4-yl)-1,3,4-oxadiazole]	> 100
CCOc1ccc2nc(O)c(CN(Cc3ccco3)C(CC)c3nnnn3Cc3ccccc3)cc2c1 (configuration not stated) [3-({[1-(1-Benzyl-1H-tetrazol-5-yl)-propyl]-furan-2-ylmethyl-amino}-methyl)-6-ethoxy-1H-quinolin-2-one]	> 100
CCOc1cc2[nH]c(=S)n(CCC(=O)N3CCc4ccccc4C3)c(=O)c2cc1OCC [3-[3-(3,4-dihydro-1H-isoquinolin-2-yl)-3-oxidanylidene-propyl]-6,7-diethoxy-2-sulfanylidene-1H-quinazolin-4-one]	> 100
CCC(c1nnnn1Cc1ccccc1)N(Cc1cc2cc(OC)ccc2[nH]c1=O)CC1CCCO1 (configuration not stated) [3-[[1-(1-benzyltetrazol-5-yl)propyl-(oxolan-2-ylmethyl)amino]methyl]-6-methoxy-1H-quinolin-2-one]	> 100
COc1ccc2nc(O)c(C(c3nnnn3CC3CCCO3)N3CCc4ccccc4C3)cc2c1 (configuration not stated) [3-{(3,4-Dihydro-1H-isoquinolin-2-yl)-[1-(tetrahydro-furan-2-ylmethyl)-1H-tetrazol-5-yl]-methyl}-6-methoxy-1H-quinolin-2-one]	> 100

same assay, conditions: inactive by the depositor's call

SMILES	EC50 [µM]
CCCCC1=CC2=CC(=O)C(C)(OC(=O)CC)C(=O)C2=CN1C1CCCCC1 (configuration not stated)	77.6
Cc1cc(C)n2nc3nc(N4CCCCC4)nc(-c4ccco4)c3c2n1 [4-(2-furyl)-6,8-dimethyl-2-piperidin-1-ylpyrimido[4',5':3,4]pyrazolo[1,5-a]pyrimidine]	96.6

Source: BindingDB's records for doi:10.7270/Q2NV9GP9 (Burnham Center For Chemical Genomics, 2010)
